± gives the standard deviation of the averaged measurements.
Experiments:
Experiment in all cases: level (log10 ratio to DMSO vehicle control); higher = higher biomarker level / cell amount than vehicle control
Settings in all cases: in DMSO
Perfluorodecanoic acid = compound: O=C(O)C(F)(F)C(F)(F)C(F)(F)C(F)(F)C(F)(F)C(F)(F)C(F)(F)C(F)(F)C(F)(F)F [Perfluorodecanoic acid]
Experimental: (§1)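 BioMAP Diversity Plus panel of 12 human primary cell co-culture systems (3C, 4H, LPS, SAg, BT, BF4T, BE3C, CASM3C, HDF3CGF, KF3CT, MyoF, Mphg). Compounds were added 1 h before stimulation and left for 24 h (MyoF 48 h; BT 72 h for soluble read-outs or 6 d for IgG). Biomarkers were read by ELISA, cytotoxicity by SRB, PBMC viability and proliferation by Alamar Blue. Each well value was divided by the mean of 8 DMSO control wells on the same plate and log10 transformed; duplicate blinded samples were tested at 4 concentrations.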

[1] = compound: O=C(O)C(F)(F)C(F)(F)C(F)F [4H-Perfluorobutanoic acid]
Experimental: as §1

Pentafluoropropionamide = compound: NC(=O)C(F)(F)C(F)(F)F [Pentafluoropropionamide]
Experimental: as §1

Perfluoropropanoic acid = compound: O=C(O)C(F)(F)C(F)(F)F [Perfluoropropanoic acid]
Experimental: as §1

[2] = compound: O=S(=O)(O)C(F)(F)C(F)(F)C(F)(F)C(F)(F)C(F)(F)C(F)(F)F [Perfluorohexanesulfonic acid]
Experimental: as §1

[3] = compound: FC(F)(F)C(F)(F)C(F)(F)C(F)(F)C(F)(F)C(F)(F)C(F)(F)C(F)(F)CCS [2-(Perfluorooctyl)ethanthiol]
Experimental: as §1

Perfluoroheptanoic acid = compound: O=C(O)C(F)(F)C(F)(F)C(F)(F)C(F)(F)C(F)(F)C(F)(F)F [Perfluoroheptanoic acid]
Experimental: as §1

Test System | level (log10) (Perfluorodecanoic acid; 6700 nM) | level (log10) (Perfluorodecanoic acid; 20000 nM) | level (log10) ([1]; 6700 nM) | level (log10) ([1]; 20000 nM) | level (log10) ([1]; 60000 nM) | level (log10) (Pentafluoropropionamide; 6700 nM) | level (log10) (Pentafluoropropionamide; 20000 nM) | level (log10) (Pentafluoropropionamide; 60000 nM) | level (log10) (Perfluoropropanoic acid; 6700 nM) | level (log10) (Perfluoropropanoic acid; 20000 nM) | level (log10) (Perfluoropropanoic acid; 60000 nM) | level (log10) ([2]; 6700 nM) | level (log10) ([2]; 20000 nM) | level (log10) ([2]; 60000 nM) | level (log10) ([3]; 6700 nM) | level (log10) ([3]; 20000 nM) | level (log10) (Perfluoroheptanoic acid; 6700 nM) | level (log10) (Perfluoroheptanoic acid; 20000 nM) | level (log10) (Perfluoroheptanoic acid; 60000 nM)
3C:CXCL8/IL-8 | 0.009 ± 0.013 | 0.0155 ± 0.021 | -0.0015 ± 0.054 | 0.009 ± 0.0071 | 0.0395 ± 0.042 | -0.026 ± 0.013 | -0.028 ± 0.0099 | 0.002 ± 0.044 | 0.007 ± 0.03 | -0.001 ± 0.02 | 0.0255 ± 0.047 | -0.004 ± 0.014 | 0.031 | 0.069 ± 0.024 | 0.002 ± 0.018 | 0.044 ± 0.028 | 0.0285 ± 0.04 | 0.0305 ± 0.056 | 0.0955 ± 0.088
BF4T:MMP-3 | 0.0215 ± 0.023 | -0.14 ± 0.075 | -0.0025 ± 0.012 | -0.014 ± 0.02 | -0.007 ± 0.023 | -0.024 ± 0.011 | -0.007 | -0.003 ± 0.033 | -0.018 ± 0.0028 | 0.0015 ± 0.026 | 0.0085 ± 0.028 | 0.021 ± 0.042 | 0.0195 ± 0.035 | 0.0605 ± 0.053 | -0.0515 ± 0.0035 | -0.0285 ± 0.015 | -0.027 ± 0.023 | -0.011 | 0.046 ± 0.048
BT:Secreted IgG | -0.014 ± 0.033 | -0.018 ± 0.02 | 0.0315 ± 0.036 | 0.0205 ± 0.03 | 0.014 ± 0.041 | 0.0065 ± 0.039 | -0.0075 ± 0.046 | 0.0155 ± 0.0064 | 0.036 ± 0.028 | 0.03 ± 0.0057 | -0.004 ± 0.057 | -0.0295 ± 0.0064 | 0.0015 ± 0.0064 | 0.0085 ± 0.0035 | 0.02 ± 0.0071 | 0.016 ± 0.0014 | 0.0185 ± 0.0092 | 0.007 ± 0.027 | -0.0365 ± 0.011
BF4T:CD54/ICAM-1 | -0.0305 ± 0.0064 | -0.181 ± 0.011 | 0.002 ± 0.0085 | -0.0025 ± 0.032 | 0.0075 ± 0.032 | -0.021 ± 0.018 | -0.007 ± 0.014 | -0.019 ± 0.017 | 0.006 ± 0.021 | -0.0045 ± 0.047 | 0.018 ± 0.027 | 0.0045 ± 0.00071 | -0.005 ± 0.011 | -0.022 ± 0.0099 | 0.0025 ± 0.005 | -0.003 ± 0.0014 | -0.022 ± 0.0071 | -0.011 ± 0.0085 | 0.004 ± 0.0071
BF4T:MMP-1 | -0.0015 ± 0.0035 | -0.201 ± 0.011 | -0.0075 ± 0.019 | 0 ± 0.034 | 0.006 ± 0.038 | -0.005 ± 0.0099 | -0.0105 ± 0.0078 | 0.012 ± 0.016 | 0.003 ± 0.0071 | 0.0035 ± 0.029 | 0.009 ± 0.033 | 0.0035 ± 0.0021 | -0.0025 ± 0.023 | 0.0255 ± 0.0035 | 0.003 ± 0.0085 | 0.01 ± 0.0099 | -0.0005 ± 0.028 | 0.001 ± 0.03 | 0.039 ± 0.051
BT:sIL-2 | 0.008 ± 0.092 | 0.118 ± 0.013 | 0.0065 ± 0.054 | -0.0275 ± 0.14 | -0.056 ± 0.017 | 0.0375 ± 0.0092 | 0.002 ± 0.03 | 0.038 ± 0.017 | 0.046 ± 0.016 | -0.0205 ± 0.064 | -0.007 ± 0.1 | -0.059 ± 0.031 | 0.0015 ± 0.035 | -0.001 ± 0.027 | 0.017 ± 0.016 | -0.0155 ± 0.071 | -0.0105 ± 0.14 | 0.0035 ± 0.037 | -0.008 ± 0.075
BT:sIL-17A | -0.0525 ± 0.0092 | -0.0075 ± 0.17 | 0.067 ± 0.13 | -0.085 ± 0.02 | -0.158 ± 0.033 | 0.0075 ± 0.1 | -0.031 ± 0.051 | 0.0105 ± 0.015 | 0.0325 ± 0.0064 | -0.051 ± 0.12 | -0.065 ± 0.15 | 0.135 ± 0.11 | -0.0225 ± 0.25 | -0.133 | -0.0475 ± 0.022 | -0.05 ± 0.042 | 0.047 ± 0.027 | 0.0865 ± 0.16 | -0.0095 ± 0.22
LPS:CD69 | -0.03 ± 0.011 | -0.048 ± 0.0099 | 0.024 ± 0.035 | 0.02 ± 0.034 | 0.028 ± 0.028 | -0.03 ± 0.0014 | -0.0255 ± 0.016 | -0.01 ± 0.0028 | -0.001 ± 0.023 | 0.0035 ± 0.012 | 0.005 ± 0.027 | -0.0125 ± 0.049 | -0.0035 ± 0.047 | -0.036 ± 0.052 | 0.019 ± 0.024 | 0.0125 ± 0.043 | -0.0095 ± 0.0035 | -0.025 | -0.057 ± 0.013
BF4T:tPA | -0.0185 ± 0.005 | -0.18 ± 0.097 | -0.002 ± 0.037 | 0.003 ± 0.028 | 0.0475 ± 0.022 | -0.013 ± 0.0028 | -0.014 ± 0.0042 | 0 ± 0.02 | -0.006 ± 0.024 | 0.025 ± 0.047 | 0.037 ± 0.04 | -0.004 ± 0.023 | -0.0125 ± 0.013 | 0.022 ± 0.0057 | 0.006 ± 0.034 | -0.0195 ± 0.022 | -0.0125 ± 0.005 | -0.0145 ± 0.015 | 0.004 ± 0.073
BF4T:CXCL8/IL-8 | 0.0395 ± 0.012 | -0.293 ± 0.076 | 0.0385 ± 0.0078 | 0.046 ± 0.024 | 0.0445 ± 0.04 | 0.019 ± 0.028 | 0.0175 ± 0.022 | 0.02 ± 0.02 | 0.043 ± 0.037 | 0.033 ± 0.035 | 0.046 ± 0.052 | 0.002 ± 0.0085 | 0.0075 ± 0.0078 | 0.0255 ± 0.018 | 0.0625 ± 0.037 | 0.0505 ± 0.05 | 0.017 ± 0.028 | 0.0155 ± 0.013 | 0.0145 ± 0.036
4H:CCL2/MCP-1 | -0.014 ± 0.0057 | -0.0255 ± 0.03 | -0.066 ± 0.047 | -0.0555 ± 0.029 | -0.0005 ± 0.028 | -0.028 ± 0.0042 | -0.0445 ± 0.03 | 0 ± 0.075 | -0.0455 ± 0.022 | -0.0145 ± 0.039 | 0.0285 ± 0.039 | -0.0205 ± 0.044 | -0.049 ± 0.031 | -0.0195 ± 0.054 | -0.02 ± 0.017 | 0.0395 ± 0.035 | -0.0115 ± 0.0064 | -0.0165 ± 0.013 | 0.025 ± 0.024
SAg:CD38 | -0.009 ± 0.0014 | -0.017 ± 0.0057 | 0.008 ± 0.028 | 0.0195 ± 0.0021 | 0.017 ± 0.021 | -0.026 ± 0.02 | -0.0125 ± 0.028 | 0.0005 ± 0.0064 | 0.0015 ± 0.043 | 0.023 ± 0.0085 | 0.029 ± 0.055 | -0.006 ± 0.014 | 0.004 ± 0.038 | -0.023 ± 0.014 | -0.036 ± 0.057 | -0.0245 ± 0.042 | -0.02 ± 0.0042 | -0.001 ± 0.0057 | -0.0225 ± 0.03
3C:HLA-DR | -0.0035 ± 0.0021 | -0.006 ± 0.013 | -0.003 ± 0.0057 | -0.013 ± 0.011 | 0.011 ± 0.014 | -0.0255 ± 0.029 | -0.0165 ± 0.013 | -0.0125 ± 0.00071 | -0.003 ± 0.0028 | 0.0035 ± 0.0035 | 0.011 ± 0.011 | -0.0015 ± 0.015 | -0.0105 ± 0.023 | 0.0125 ± 0.047 | -0.015 ± 0.018 | -0.0235 ± 0.0078 | 0.006 ± 0.017 | 0.004 ± 0.013 | 0.034 ± 0.047
BE3C:CD54/ICAM-1 | 0.085 | -1.02 ± 0.012 | -0.0085 ± 0.0021 | -0.0245 ± 0.00071 | 0.0125 ± 0.033 | -0.0045 ± 0.0021 | 0.002 ± 0.0028 | -0.0055 ± 0.00071 | -0.025 ± 0.017 | 0 ± 0.0014 | 0.007 ± 0.016 | 0 ± 0.027 | 0.0025 ± 0.016 | 0.008 ± 0.013 | -0.0055 ± 0.028 | -0.0055 ± 0.015 | -0.007 ± 0.0071 | -0.023 ± 0.0028 | -0.0055 ± 0.022

From the supplement of paper PMC10331698
